Where two headings read alike, the source gives them in different places.
Assays:
HLECs [1] = assay: CCK-8 cell viability assay; type: cell-based; settings: Homo sapiens, 48 h, read-out: IC50, proliferation of HLECs
Experimental: (§1) Cell viability assays were performed using CCK-8 kit. Briefly, VEGF-D-LL/2 cells, parental LL/2 cells and HLECs were treated with various concentrations of YL529 in 96-well culture plates for 48 h. CCK-8 was added to the cells and the plate was incubated for an additional 2–4 h. The optical density (OD) was then measured at 450 nm using a Spectra MAX M5 microplate spectrophotometer (Molecular Devices, Sunnyvale, CA).
CCK-8 assay was used to evaluate the potential proliferation inhibition effect of HLECs after treated with YL529 or vehicle for 48 h.

HLECs [2] = assay: scratch-induced (wound healing) migration assay; type: cell-based; settings: Homo sapiens, read-out: inhibition of cell migration
Experimental: The anti-metastasis effect of YL529 was determined using a scratch-induced cell migration assay in vitro [24, 25]. Briefly, 1 × 10^5 HLECs were plated in 6 well plates and synchronized by serum-free ECM medium for 8 h, then used a micropipette tip to create a 2 mm-wide linear gap. Cells were washed to remove non-adherent cells and further incubated with fresh ECM medium containing or lacking YL529. An inverted microscope (Carl Zeiss, Germany) was used to photograph after YL529 treatment for another 48 h.
We next examined the effects of YL529 on HLECs migration using a wound healing migration assay.

HLECs [3] = assay: transwell invasion assay; type: cell-based; settings: Homo sapiens, read-out: inhibition of cell invasion
Experimental: Transwell migration assay was adopted to indicate the anti-metastasis effect of YL529 [26]. Briefly, the transwell were pre-coated with 25 % Matrigel Matrix containing growth factors (BD Biosciences, Bedford, MA) for 30 min at 37 °C. And then the bottom chambers were filled with 600 μl ECM medium and the top chambers were seeded with 4 × 10^4 cells HLECs (100 μl/well). The top and bottom chambers were incubated for another 24 h. Then cells on the top surface of the membrane were scraped with a cotton swab. Cells on the bottom side of the membrane were fixed with 4 % paraformaldehyde and stained with 0.1 % crystal violet (Sigma-Aldrich, USA). An inverted microscope (Zeiss, Axiovert 200, Germany) was used to obtain the images and the invading cells were quantified.
To further measure the effect of YL529 on HLECs invasion, we used a transwell assay and measured the number of HLECs that passed through a membrane barrier following treatment with various concentrations of YL529 [29].

HLECs [4] = assay: tube formation assay; type: cell-based; settings: Homo sapiens, 6 h
Experimental: The antilymphogenic effects of YL529 were analyzed in vitro using a tube-formation assay in HLECs. Briefly, 96-well plate was pre-incubated with 100 μl per well of Matrigel Matrix at 37 °C for 30 min, HLECs were seeded at a density of 3 × 10^4 cells per well in ECM medium. And after cultured in the presence or absence of designed concentrations of YL529 on Matrigel Matrix at 37 °C another 6 h, tube formation by endothelial cells was evaluated and photographed under an inverse microscope (Zeiss, Axiovert 200, Germany).
To further understand the mechanism of the anti-lymphogenic effect of YL529, the antilymphogenic tube formation effect of YL529 was analyzed with cultured HLECs in vitro [30]. […] In great contrast, HLECs without YL529 treatment spread and aligned with each other and formed a rich meshwork of branching capillary-like tubules within 6 h (Fig. 2c).

VEGF-D-LL/2 cells [5] = assay: CCK-8 cell viability assay; type: cell-based, murine; settings: Mus musculus, 48 h, read-out: IC50, proliferation of VEGF-D-LL/2 cells
Experimental: The transfected murine LL/2 Lewis lung carcinoma cells with the pcDNA3.1 (+) expression vector containing mouse VEGF-D (VEGF-D-LL/2 cells) or pcDNA3.1 (vector alone) were transfected as reported before obtained in our laboratory. The cell lines were maintained in an atmosphere of 5 % CO2 at 37 °C in cell culture medium DMEM supplemented with 10 % fetal bovine serum. Western blot analysis was performed to analyze the expression of recombinant VEGF-D of these cells.
as §1
(§2) VEGF-D-LL/2 cells were previously established by transfection with the pcDNA3.1 (+) expression vector containing mouse VEGF-D [31]. Similar to the previous data from our group, this study uses a VEGF-D antibody that detects the mature form of VEGF-D, because the fully mature cleaved form of 21 kD has the greatest affinity for the receptors, and can bind and activate not only VEGFR-2 but also VEGFR-3.

parental LL/2 cells = assay: CCK-8 cell viability assay; type: cell-based, murine; settings: Mus musculus, 48 h, read-out: IC50, proliferation of parental LL/2 cells
Experimental: Human lymphatic endothelial cells (HLECs) were purchased from the ScienCell™ Research Laboratories and cultured in endothelial cell medium (ECM) containing 5 % fetal bovine serum (FBS), 1 % endothelial cell growth supplement (ECGS), 100 IU/mL penicillin and 100 μg/mL streptomycin. Lewis lung carcinoma LL/2 cells were obtained from American Type Culture Collection (ATCC) and cultured in DMEM containing 10 % FBS, 100 IU/mL penicillin and 100 μg/mL streptomycin. Subcultures were performed with trypsin-EDTA. All cells were incubated in an atmosphere of 5 % CO2 at 37 °C.
as §1, §2

p-VEGFR-3 = assay: western blot of VEGFR-3/p-VEGFR-3 in HLECs; type: cell-based, human; settings: after 2 h of treatment
Experimental: (§3) Standard western blot analysis was performed. Briefly, Cell lysates were washed with phosphate buffered saline (PBS) and lysed in RIPA (radioimmunoprecipitation assay) buffer. Then lysates were centrifuged at 12000 g for 30 min at 4 °C. The Bio-Rad Protein Assay kit (Bio-Rad Laboratories) was used to determine the samples protein concentration according to the manufacturers’ recommendations. The lysates were dissolved in 5 × SDS sample buffer and denatured, then subjected to 6 % to 12 % SDS-PAGE (sodium dodecyl sulfate polyacrylamide gel electrophoresis) according to molecular weight and transferred onto PVDF (polyvinylidene fluoride) (Bio-Rad, Hercules, CA) membranes. Membranes were blocked for 1 h in 5 % dried milk in TBS/T at room temperature and incubated overnight at 4 °C with the primary antibodies and horseradish peroxidase-conjugated secondary antibodies. Protein bands were visualized with enhanced chemiluminescent substrate (Amersham Biosciences Corp., Piscataway, NJ).
To gain in-depth insight into the molecular mechanism of anti-lymphangiogenesis effects of YL529, the expression levels of VEGFR-3/p-VEGFR-3 in HLECs were analyzed by western blotting in vitro.

VEGF-D-LL/2 cells [6] = assay: western blot of p-JNK, Bax, Bcl-2 in VEGF-D-LL/2 cells; type: cell-based, murine
Experimental: as §3

[7] = pharmacokinetics after oral administration in mice; type: in vivo, C57 BL/6 mice; settings: for half-life: po
Experimental: C57 BL/6 mice (n = 3 per time point) were administered 150 mg/kg YL529 orally. Blood samples of the mice were collected at appropriate intervals and the plasma concentration of YL529 was analyzed by HPLC (Waters, MA, USA). The pharmacokinetic characteristics and parameters were analyzed using Pharmacokinetic Software of Drug and Statistics (DAS, edited and published by the Mathematical Pharmacology Professional Committee of China, Shanghai, China).

VEGF-D-LL/2 tumors [8] = assay: VEGF-D-LL/2 syngeneic s.c. tumor model; type: in vivo
Experimental: (§4) Seven-week-old female C57 BL/6 mice (Beijing animal center, Beijing, China) were used. VEGE-D-LL/2 cells (1 × 10^6) were injected intramuscularly and subcutaneously in hind limb of mice. The mice were randomized into 5 groups (n = 10 per groups) and orally administered 37.5, 75 and 150 mg/kg/day YL529, vehicle and saline alone (N.S.), respectively for 14 days when tumors became visible the 10th day after cells were implanted. Tumor growth and mice weight was monitored every 3 days. When animals were sacrificed with CO2 gas at the end of drug administration, tumor tissues, lung organs and local lymph nodes were removed, weighted and calculated by manual. Tumor size was determined by measuring the largest and perpendicular diameters every 3 days, tumor volume was calculated using the formula: volume (mm^3) = 0.5 × length × width^2. In addition, the same subcutaneously tumor models were used to monitor the survival time of experimental mice after drug administration. All animals experiments performed were in accordance with the guidelines of the institute’s Animal Care and Use Committee of Sichuan University (Chengdu, China).
(§5) Tumor tissues from vehicle and 150 mg/kg YL529 groups were fixed in 4 % paraformaldehyde, dehydrated and embedded in paraffin [27]. Sections of these tissues were subsequently incubated with LYVE-1 and corresponding second antibodies and visualized using peroxidase-DAB. TUNEL staining was also performed for fixed tissues (Promega, USA). Quantification was done as described. Briefly, the microvessel counting was done in representative 200× fields or three high-power (400×) fields of the highest vascular density.
(§6) Based on the safety profile and the in vivo pharmacokinetics of YL529, chronic oral administration of YL529 at daily dosages of 37.5 ~ 150 mg/kg/day was chosen to treat the mice with VEGF-D-LL/2 tumors (syngeneic s.c. and muscle models).

VEGF-D-LL/2 tumors [9] = assay: VEGF-D-LL/2 syngeneic muscle tumor metastasis model; type: in vivo, C57 BL/6 mice; settings: for percent of mice with local lymph node metastasis: vehicle 80 % ~ 90 %
Experimental: as §4, §5, §6

safety profile in mice = type: in vivo; settings: 150 mg/kg daily for 18 days
Experimental: To evaluate the safety profile of YL529 (150 mg/kg) in vivo, we have observed the gross measures such as weight loss, life span, behavior and feedings. Moreover, we have also investigated the mortality and clinical signs of C57BL/6 mice throughout oral administration period. In addition, blood samples and heart, liver, spleen, lung, and kidney tissues of mice were collected; the histopathological, serum biochemistry and hematological analysis were done to observe the possible pathological changes. In addition, we also evaluated the safety profiles of YL529 after oral administration with high dose (6000 mg/kg) for 14 days.
Currently, side effects are the prevalent shortcomings of anticancer drugs.

[10] = high-dose toxicity, organ parameters in rats; type: in vivo; settings: SD rats; for Heart index / Kidney index / Liver index / Lung index / Spleen index: oral 6000 mg/kg
VEGFR-3 = settings: 10 μM; cited from earlier work
VEGFR2 = settings: 10 μM; cited from earlier work
[11] = C57 BL/6, mouse, plasma, single dose 150 mg/kg

In the case of CNC(=O)c1cc(Oc2ccc(NC(=O)c3cccc(C(F)(F)F)c3)cc2)ccn1 [YL529, N-methyl-4-(4-(3-(trifluoromethyl)benzamido)phenoxy)picolinamide4-methylbenzenesulfonate], the IC50 (HLECs [1]) is reported as 5.5 µM, the inhibition at 2.5 µM (HLECs [2]; 2.5 μM) is reported as 44.3% and the inhibition at 5 µM (HLECs [2]; 5 μM) is reported as 66.8%. The inhibition at 10 µM (HLECs [2]; 10 μM) was 79.8%, the inhibition at 2.5 µM (HLECs [3]; 2.5 μM, compared with vehicle) was 28% and the inhibition at 5 µM (HLECs [3]; 5 μM) was 65.9%. It also gave an inhibition at 10 µM (HLECs [3]; 10 μM) of 90.2%, an inhibition at 10 µM (HLECs [4]) of 85.7% and an IC50 (VEGF-D-LL/2 cells [5]) of 7.2 µM. The IC50 (parental LL/2 cells) was 9.6 µM, the “phosphorylation of VEGFR-3” value (p-VEGFR-3) was “potently inhibited” and the “total expression of VEGFR-3” value (p-VEGFR-3) was “no change”. The “expression level of Bcl-2” value (VEGF-D-LL/2 cells [6]) was “increased”, the “expression level of p-JNK” value (VEGF-D-LL/2 cells [6]) was “decreased” and the Cmax ([7]; C57 BL/6, mouse, plasma, 150 mg/kg, read-out: peak plasma concentration (Cmax)) was 18000 ng/mL. For the same compound, the half-life ([7]; C57 BL/6, mouse, plasma, 150 mg/kg, single dose 150 mg/kg, read-out: t1/2z (converted)) was 4.11 h, the half-life ([7]; C57 BL/6, mouse, plasma, 150 mg/kg, single dose 150 mg/kg, read-out: t1/2β (converted)) was 6.03 h and the AUC(0-inf) [7, 11] was 171 µg·h/mL. For the same compound, the AUC(0-t) [7, 11] was 167 µg·h/mL, the Tmax [7, 11] was 2 h and the Cmax ([7]; single dose 150 mg/kg) was 18030 ng/mL. The T1/2α ([7]; single dose 150 mg/kg) was 1.39 h, the “apoptotic tumor cells (TUNEL), increase vs. vehicle” value (VEGF-D-LL/2 tumors [8]; 150 mg/kg) was 20 fold and the “mice survived to 54 days” value (VEGF-D-LL/2 tumors [8]; 150 mg/kg group) was 60%. For the same compound, the “mice survived to 40 days” value (VEGF-D-LL/2 tumors [8]; YL529 treated groups) was 90%, the body weight (VEGF-D-LL/2 tumors [8]; at this dosage) was “no loss of body weight” and the tumor volume reduction (VEGF-D-LL/2 tumors [8]; compared with vehicle-treated group, oral, dose not given) was 66.22%. The “number of mice with lung metastasis and inguinal lymph node metastasis” value (VEGF-D-LL/2 tumors [9]) was “significantly reduced”, the “percent of mice with local lymph node metastasis” value (VEGF-D-LL/2 tumors [9]; 37.5 mg/kg group) was 50% and the “lymphangiogenesis in tumor tissues (LYVE-1 staining), change vs vehicle group” value (VEGF-D-LL/2 tumors [9]; 150 mg/kg for 14 days) was 34.71%. The “percent of mice with local lymph node metastasis” value (VEGF-D-LL/2 tumors [9]; 150 mg/kg group) was 20%, the body weight (VEGF-D-LL/2 tumors [9]; end of drug administration) was “no loss of body weight” and the “body weight loss or tissue damage” value (safety profile in mice) was “no obvious body weight loss or tissue damage”. The “weight changes of major organs (heart, liver, spleen, lung, kidney and brain)” value ([10]; 6000 mg/kg daily for 14 days) was “no obvious weight changes”, the Heart index ([10]; female) was 0.42 ± 0.09% and the Kidney index ([10]; female) was 0.38 ± 0.09%. It also gave a Liver index ([10]; female) of 3.13 ± 0.09%, a Lung index ([10]; female) of 0.43 ± 0.06% and a Spleen index ([10]; female) of 0.25 ± 0.03%. For the same compound, the Heart index ([10]; male) was 0.42 ± 0.06%, the Kidney index ([10]; male) was 0.38 ± 0.09% and the Liver index ([10]; male) was 3.09 ± 0.13%. For the same compound, the Lung index ([10]; male) was 0.42 ± 0.09%, the Spleen index ([10]; male) was 0.24 ± 0.04% and the “inhibition of VEGFR-3 activity” value (VEGFR-3) was 97%. For the same compound, the “inhibition of VEGFR2 activity” value (VEGFR2) was “inhibited VEGFR2 activity”.
